Our source for the IC50 values is ChEMBL document CHEMBL5604062, “ASAP - ZIKV NS2B-NS3 protease fluorescence dose response” (2024).

Where “and” joins values, the source holds several entries; their conditions need not be identical. Equal entries are not always repeated.

The experiment addresses Nonstructural protein 3 (Zika virus, UniProt A0A024AXB9). The experiment is described as follows: Functional biochemical assay to identify treatments for viral infectious disease that targets Zika NS2B-NS3 protease. Utilizing a direct enzyme activity measurement method, reading the fluorescence intensity is used to characterize the relative potency of inhibitors as IC50. Set-up: species or system PRVABC59.

Chain of Nonstructural protein 3 (A0A024AXB9 whole entry): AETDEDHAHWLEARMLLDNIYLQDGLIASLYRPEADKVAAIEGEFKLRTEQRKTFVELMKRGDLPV

Turning to `c1ccc2nc(SCc3cn4ccccc4n3)cnc2c1`, the IC50 was > 99.5 µM. With `c1ccc(C2CCN(Cc3ccc4nccnc4c3)CC2)nc1` the figure was > 99.5 µM; with `Brc1cnn(C2CCN(Cc3csnn3)CC2)c1`, > 99.5 µM. With `[O-][S@@+](Cc1nc(-c2cccs2)no1)c1cccs1` the figure was > 99.5 µM. With `C[S@@+]([O-])c1nncn1Cc1ccc(Cl)s1` the figure was > 99.5 µM; with `c1nnc(SCCCSc2nncs2)s1`, > 99.5 µM; with `O=c1ccn(Cc2cc(=O)n3ccccc3n2)c2ccsc12`, > 99.5 µM. Regarding `Brc1nc(Br)n(Cc2cscn2)n1`, the IC50 was > 99.5 µM. With `NCc1cccc(NC(=O)c2cc(C3CC3)nc3ccc(Cl)cc23)c1` the figure was > 99.5 µM; with `O=C(Nc1cc(Cl)cc(C(=O)Nc2ccnc([C@H]3CCCN3)n2)c1)OCc1ccccc1`, 82.6 µM. As to `NCc1cccc([C@H]2C[C@@H]2c2cc(Cl)cc(NC(=O)OCc3ccccc3)c2)c1`, the IC50 was 7.36 µM and 6.03 µM. With `Cn1cncc1COc1cccc([C@H](NC(=O)OCc2ccccc2)C(=O)Nc2cccc(CN)c2)c1` the figure was 32.6 µM; with `CS(=O)(=O)N(c1cc(Cl)cc(C(=O)Nc2cccc(CN)c2)c1)S(C)(=O)=O`, > 99.5 µM. With `Cc1cc(CN)cc(C)c1NS(=O)(=O)c1ccc(Oc2ccccc2Cl)cc1` the figure was 81.3 µM; with `N#Cc1ccc(OCCn2nnn(-c3ccccc3)c2=O)cc1`, > 99.5 µM. With `NC1(c2cccc(NS(=O)(=O)c3ccc(Oc4ccccc4Cl)cc3)c2)CCOCC1` the figure was > 99.5 µM; with `CCc1c(C(=O)Nc2cccc(CN)c2)c2cc(Cl)ccc2n1C`, > 99.5 µM; with `N#Cc1ccc(S(=O)(=O)CCn2nc(-c3ccco3)oc2=O)cc1`, > 99.5 µM. For `O=c1ccc(N2CCN(Cc3c[nH]c4ccccc34)CC2)c[nH]1`, the IC50 was > 99.5 µM.

Regarding `COc1cn(-c2cccc(C(F)(F)F)c2)nc1C(=O)Nc1cccc(CN)c1`, the IC50 is > 99.5 µM. With `NCc1cccc(NC(=O)c2cc(N)cc(Cl)c2)c1` the figure was 39.6 µM; with `c1cncc(CN2CC[C@H](NCc3c[nH]c4ccccc34)C2)c1`, > 99.5 µM.

Molecule `CCOc1cccc(-c2ccc(S(=O)(=O)Nc3ccc(Cl)cc3C(=O)O)cc2C)c1` gave an IC50 of 11.1 µM. With `NC1CN(c2ccc(NS(=O)(=O)c3ccc(Oc4ccccc4Cl)cc3)cn2)C1` the figure was > 99.5 µM. Molecule `NCc1cccc(NC(=O)[C@H](NC(=O)OCc2ccccc2)c2cccc(-c3ccnc(N)c3)c2)c1` gave an IC50 of 48.1 µM. With `Cc1cc(C(=O)Nc2cccc(CN)c2)n2nc(C(F)(F)F)cc2n1` the figure was > 99.5 µM; with `CC(C)(C)OC(=O)NCc1cccc(NC(=O)C[C@H](N)c2ccc(OCc3ccccc3)c(Br)c2)c1`, > 99.5 µM; with `N[C@H]1CCCc2ccc(NC(=O)c3cc(Cl)cc(NC(=O)OCc4ccccc4)c3)cc21`, 12.1 µM.

Take `C[C@H]1CC[C@@](Cc2nc3ccccc3[nH]2)(C(=O)Nc2cccc(CN)c2)CC1`: the IC50 was > 99.5 µM. With `NC1(c2cccc(NC(=O)c3cc(Cl)cc(NC(=O)OCc4ccccc4)c3)c2)CCOCC1` the figure was > 99.5 µM; with `Cc1ccc(OCc2ccccc2Cl)c(C(=O)Nc2cccc(CN)c2)c1`, 43.2 µM; with `CS(=O)(=O)Nc1cc(Cl)cc(C(=O)Nc2cccc(CN)c2)c1`, > 99.5 µM. With `CCc1cc(NC(=O)OCc2ccccc2)cc(C(=O)Nc2cccc(CN)c2)c1` the figure was 39.8 µM; with `NCc1cccc(NC(=O)c2cc(CO)cc(NC(=O)OCc3ccccc3)c2)c1`, > 99.5 µM. `NCc1cc(Cl)cc(C(=O)Nc2cccc(C3CCNCC3)c2)c1` came in with an IC50 of 25.8 µM. With `COc1ccc(-c2cccc([C@H](NC(=O)OCc3ccccc3)C(=O)Nc3cccc(CN)c3)c2)c(C#N)c1` the figure was 11.2 µM; with `NCc1cccc(NC(=O)[C@H](NC(=O)OCc2ccccc2)c2cccc(-c3ccccn3)c2)c1`, 82.4 µM.

As to `NCc1cccc(NC(=O)[C@H]2CCc3nnc(-c4ccc(F)cc4)n3C2)c1`, the IC50 was > 99.5 µM.

In the case of `CC(C)(CNCc1c[nH]c2ccccc12)c1cccnc1`, the IC50 was > 99.5 µM. For the molecule `O=C(Nc1cc(Cl)cc(C(=O)Nc2cccc([C@H]3CCNC3)c2)c1)OCc1ccccc1`, the IC50 is 8.73 µM and 11.6 µM.

With `NCc1cccc(NC(=O)c2cc(Cl)cc(NC(=O)NCc3ccccc3)c2)c1`, it took 2.1 µM to reach half-maximal inhibition (IC50). With `COc1ccc(F)cc1-c1ccc(S(=O)(=O)Nc2cc(Cl)cc(C(=O)O)c2)cc1` the figure was > 99.5 µM; with `CCCN(C)C(=O)Cn1ccnc(N2CC[C@H](CO)C2)c1=O`, > 99.5 µM. With `NCc1ccc(NC(=O)[C@H]2[C@H]3CCCCC[C@H]3[C@H]2NC(=O)OCc2ccccc2)cc1` the figure was 36.6 µM; with `O=C(Nc1cc(Cl)cc(C(=O)Nc2nc([C@H]3CCCN3)cc(=O)[nH]2)c1)OCc1ccccc1`, 92 µM; with `Brc1cccc2cn(Cc3ncccn3)nc12`, > 99.5 µM.

Take `c1ccc2[nH]c(CC3CCN(Cc4nccs4)CC3)nc2c1`: the IC50 was > 99.5 µM. With `NCc1cccc(NC(=O)[C@@H]2C[C@@H](O)CN2C(=O)C23CC4CC(CC(C4)C2)C3)c1` the figure was > 99.5 µM; with `O=C(Nc1cc(Cl)cc(C(=O)Nc2cccc(CO)c2)c1)OCc1ccccc1`, > 99.5 µM. With `NCc1cccc(NC(=O)c2cc3c(F)cc(F)c(F)c3[nH]2)c1` the figure was 42.4 µM; with `NCc1cccc(NC(=O)[C@H](NC(=O)OCc2ccccc2)c2cccc(-c3ccc4c(c3)CC(=O)N4)c2)c1`, 8.83 µM; with `Cc1ccc(CN)cc1-c1cccc([C@H](NC(=O)OCc2ccccc2)C(=O)Nc2cccc(CN)c2)c1`, 18.2 µM. With `NCc1ccc(NS(=O)(=O)c2ccc(Oc3ccccc3Cl)cc2)cc1Cl` the figure was > 99.5 µM.

`O=C(NCc1ccco1)c1csc(Br)c1`: the IC50 was > 99.5 µM. With `N[C@H](CO)c1cccc(NC(=O)c2cc(Cl)cc(NC(=O)OCc3ccccc3)c2)c1` the figure was 57.4 µM; with `CCNC(=O)Nc1cc(Cl)cc(C(=O)Nc2cccc(CN)c2)c1`, 0.659 µM; with `Cc1c(F)cc(C(=O)Nc2cccc(CN)c2)c(F)c1NC(=O)OCc1ccccc1`, 63.9 µM. With `NC1CN(c2ncccc2NS(=O)(=O)c2ccc(Oc3ccccc3Cl)cc2)C1` the figure was > 99.5 µM; with `NC1(c2cccc(NC(=O)c3cc(Cl)cc(NC(=O)OCc4ccccc4)c3)c2)CC1`, > 99.5 µM. With `NCc1cccc(Oc2ccc(S(=O)(=O)Nc3ccc(Cl)cc3C(=O)NCC(F)(F)F)cc2)c1` the figure was > 99.5 µM; with `NC(=O)c1cccc(NC(=O)c2cc(Cl)cc(NC(=O)OCc3ccccc3)c2)c1`, > 99.5 µM. With `CCc1cc(C(=O)Nc2cccc(CN)c2)sc1-c1ccc(Cl)cc1`, the IC50 was 8.99 µM. With `O=c1ccc(-n2cncn2)nn1CC=Cc1ccccc1` the figure was > 99.5 µM; with `CCSc1nnc(SCCn2nc3ccccn3c2=O)s1`, > 99.5 µM. With `C=C(C)c1cc(NC(=O)OCc2ccccc2)cc(C(=O)Nc2cccc(CN)c2)c1` the figure was 14.8 µM; with `O=C(Cn1ccnc(N2CC[C@H](CO)C2)c1=O)N1CCOCC1`, > 99.5 µM. With `O=c1c2cccn2cnn1Cc1cnc(Cl)s1` the figure was > 99.5 µM. As to `O=c1c2ccccc2ncn1CCCn1cnc2ccccc2c1=O`, the IC50 was > 99.5 µM. With `NC1(c2cc(C(F)(F)F)ccc2NS(=O)(=O)c2ccc(Oc3ccccc3Cl)cc2)CC1` the figure was > 99.5 µM. With `NCc1cccc(NC(=O)[C@H](NC(=O)OCc2ccccc2)c2ccc(OCc3ccccc3)c(Br)c2)c1` the figure was 5.07 µM; with `O=C(Nc1cc(Cl)cc(C(=O)Nc2cccc([C@H]3CNCCO3)c2)c1)OCc1ccccc1`, > 99.5 µM. With `NCCc1cccc(NC(=O)[C@H]2[C@H]3CCCCC[C@H]3[C@H]2NC(=O)OCc2ccccc2)c1` the figure was 7.87 µM.

Take `NCc1cccc(CCc2cc(Cl)cc(NC(=O)OCc3ccccc3)c2)c1`: inhibition was half-maximal at 9.6 µM (IC50). In the case of `NCCOc1ccnc(NS(=O)(=O)c2ccc(Oc3ccccc3Cl)cc2)c1`, the IC50 was > 99.5 µM. With `C[C@@H](NCc1c[nH]c2ccccc12)c1cscn1` the figure was > 99.5 µM. With `NCc1cccc(NC(=O)C[C@H](CC(N)=O)c2ccc(F)cc2)c1` the figure was > 99.5 µM. With `N[C@H]1CCc2ccc(NC(=O)c3cc(Cl)cc(NC(=O)OCc4ccccc4)c3)cc21` the figure was 8.42 µM; with `CS(=O)(=O)Nc1c(Cl)cc(Cl)cc1C(=O)Nc1cccc(CN)c1`, > 99.5 µM.

As for `Cc1cc(CN)cc(NS(=O)(=O)c2ccc(Oc3ccccc3Cl)cc2)c1`, the IC50 was > 99.5 µM. With `NCc1cccc(NC(=O)c2ccnc3[nH]c(C4CCOCC4)nc23)c1` the figure was > 99.5 µM; with `NCc1cccc(NC(=O)c2cc(Br)cnc2OCC2CC2)c1`, > 99.5 µM; with `COc1ccc(COc2ccc([C@H](NC(=O)OCc3ccccc3)C(=O)Nc3cccc(CN)c3)cc2)cn1`, 38.8 µM.

For `NC1(c2ccccc2NS(=O)(=O)c2ccc(Oc3ccccc3Cl)cc2)CC1`, the IC50 was > 99.5 µM.

As for `c1csc(CSc2nnc(Cn3cncn3)o2)c1`, the IC50 is > 99.5 µM. With `N[C@H]1CCN(c2ccc(NS(=O)(=O)c3ccc(Oc4ccccc4Cl)cc3)cc2)C1` the figure was 37.3 µM; with `NCc1cccc(NC(=O)[C@H](NC(=O)OCc2ccccc2)c2ccc(OCC3CCC3)cc2)c1`, 28.5 µM; with `OC[C@H](Cc1cccnc1)NCc1c[nH]c2ccccc12`, > 99.5 µM. With `CC(C)c1nc2c(C(=O)Nc3cccc(CN)c3)cccc2[nH]1` the figure was 14.3 µM; with `COc1cc(C(=O)Nc2cccc(CN)c2)cc(NC(=O)OCc2ccccc2)c1Cl`, 38.1 µM.

Turning to `c1csc(-c2nnc(Sc3ncnc4sccc34)o2)c1`, the IC50 was > 99.5 µM.

In the case of `NC1(c2cccc(NS(=O)(=O)c3ccc(Oc4ccccc4Cl)cc3)c2)CCC1`, the IC50 was > 99.5 µM.

On to `NCc1cccnc1NS(=O)(=O)c1ccc(Oc2ccccc2Cl)cc1`, for which the IC50 is > 99.5 µM. With `N[C@H]1CCOc2ccc(NC(=O)c3cc(Cl)cc(NC(=O)OCc4ccccc4)c3)cc21` the figure was 10.6 µM. With `O=C(O)C[C@H](NC(=O)OCc1ccccc1)c1ccc(OCc2ccccc2)c(Br)c1` the figure was > 99.5 µM.

Usually IC50 stands for the concentration needed to halve the response being measured.
